According to PubChem BioAssay (NCI):
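Cultured in 96-well plates, cells were exposed to test compound for 48 hours across five concentrations. GI50 = concentration required for 50% inhibition of growth. TGI: concentration producing complete growth inhibition.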

Legend:
Test in all cases: DTP human tumour cell line panel, 48 h
[1] = test system: 786-0 renal
[2] = test system: A498 renal
[3] = test system: A549 NSCLC
[4] = test system: ACHN renal
[5] = test system: BT-549 breast
[6] = test system: CAKI-1 renal
[7] = test system: CCRF-CEM leukemia
[8] = test system: COLO 205 colon
[9] = test system: DU-145 prostate
[10] = test system: EKVX NSCLC
[11] = test system: HCT-15 colon
[12] = test system: HOP-62 NSCLC
[13] = test system: HOP-92 NSCLC
[14] = test system: HS 578T breast
[15] = test system: HT29 colon
[16] = test system: IGROV1 ovarian
[17] = test system: K-562 leukemia
[18] = test system: KM12 colon
[19] = test system: MALME-3M melanoma
[20] = test system: MDA-MB-231 breast
[21] = test system: MDA-MB-435
[22] = test system: MOLT-4 leukemia
[23] = test system: NCI-H226 lung
[24] = test system: NCI-H522 lung
[25] = test system: OVCAR-3 ovarian
[26] = test system: OVCAR-4 ovarian
[27] = test system: OVCAR-5 ovarian
[28] = test system: PC-3 prostate
[29] = test system: RPMI-8226 leukemia
[30] = test system: RXF 393 renal
[31] = test system: SF-268 CNS
[32] = test system: SF-295 CNS
[33] = test system: SF-539 CNS
[34] = test system: SK-MEL-2 melanoma
[35] = test system: SK-MEL-28 melanoma
[36] = test system: SK-MEL-5 melanoma
[37] = test system: SK-OV-3 ovarian
[38] = test system: SN12C renal
[39] = test system: SNB-19 CNS
[40] = test system: SNB-75 CNS
[41] = test system: SR leukemia
[42] = test system: SW-620 colon
[43] = test system: T-47D breast
[44] = test system: TK-10 renal
[45] = test system: U251 CNS
[46] = test system: UACC-257 melanoma
[47] = test system: UACC-62 melanoma
[48] = test system: UO-31 renal

`CNCc1cccc2c1OCCCCCCC(C)(O)CC(C)(C)S(=O)(=O)c1ccc(cc1)-c1cnc(N)c(n1)C(=O)N2` (centres undefined) was tested, and the GI50 [1] was 27.9 nM, the TGI [1] was 2100 nM and the GI50 [2] was 3580 nM. The TGI [2] was 16000 nM, the GI50 [3] was 123 nM and the TGI [3] was 2460 nM. The GI50 [4] was 30.6 nM, the TGI [4] was 2560 nM and the GI50 [5] was 762 nM. It also gave a TGI [5] of 8990 nM, a GI50 [6] of 401 nM and a TGI [6] of 2270 nM. The GI50 [7] was 13.8 nM, the TGI [7] was > 20400 nM and the GI50 [8] was 66.4 nM. For the same compound, the TGI [8] was 1520 nM, the GI50 [9] was 603 nM and the TGI [9] was 3240 nM. The GI50 [10] was 1870 nM, the TGI [10] was 6970 nM and the GI50 [11] was 92 nM. It also gave a TGI [11] of 1310 nM, a GI50 [12] of 1320 nM and a TGI [12] of 3750 nM. It also gave a GI50 [13] of 10200 nM, a TGI [13] of 25900 nM and a GI50 [14] of 381 nM. The TGI [14] was 2910 nM, the GI50 [15] was 51.5 nM and the TGI [15] was 1890 nM. It also gave a GI50 [16] of 433 nM, a TGI [16] of 4480 nM and a GI50 [17] of 43.6 nM. The TGI [17] was > 100000 nM, the GI50 [18] was 1320 nM and the TGI [18] was 2940 nM. It also gave a GI50 [19] of 1210 nM, a TGI [19] of 2580 nM and a GI50 [20] of 953 nM. For the same compound, the TGI [20] was 3140 nM, the GI50 [21] was 558 nM and the TGI [21] was 2050 nM. It also gave a GI50 [22] of 15.1 nM, a TGI [22] of 2570 nM and a GI50 [23] of 1130 nM. For the same compound, the TGI [23] was 6210 nM, the GI50 [24] was 548 nM and the TGI [24] was 2070 nM. The GI50 [25] was 277 nM, the GI50 [26] was 1130 nM and the TGI [26] was 2720 nM. The GI50 [27] was 2240 nM, the TGI [27] was 10300 nM and the GI50 [28] was 910 nM. It also gave a TGI [28] of 9170 nM, a GI50 [29] of 637 nM and a TGI [29] of 3000 nM. For the same compound, the GI50 [30] was 47.7 nM, the TGI [30] was 1370 nM and the GI50 [31] was 1270 nM. It also gave a TGI [31] of 3570 nM, a GI50 [32] of 1410 nM and a TGI [32] of 2840 nM. For the same compound, the GI50 [33] was 27.4 nM, the TGI [33] was 2010 nM and the GI50 [34] was 1850 nM. For the same compound, the TGI [34] was 4250 nM, the GI50 [35] was 1240 nM and the TGI [35] was 2540 nM. It also gave a GI50 [36] of 1300 nM, a TGI [36] of 2570 nM and a GI50 [37] of 1850 nM. The TGI [37] was 18400 nM, the GI50 [38] was 1170 nM and the TGI [38] was 12700 nM. The GI50 [39] was 1880 nM, the TGI [39] was 5460 nM and the GI50 [40] was 453 nM. For the same compound, the TGI [40] was 6460 nM, the TGI [41] was 1190 nM and the GI50 [42] was 1360 nM. The TGI [42] was 4170 nM, the GI50 [43] was 6440 nM and the TGI [43] was 32700 nM. It also gave a GI50 [44] of 3290 nM, a TGI [44] of 12200 nM and a GI50 [45] of 366 nM. It also gave a TGI [45] of 1940 nM, a GI50 [46] of 1290 nM and a TGI [46] of 2720 nM. The GI50 [47] was 1690 nM, the TGI [47] was 3340 nM and the GI50 [48] was 224 nM. It also gave a TGI [48] of 2210 nM.
